Experiments:
[1] = human
[2] = Highest frequency of acute liver toxicity observed during clinical trials, expressed as a percentage. [column '% AIGUE' in source]; conditions: human
[3] = human, serum
[4] = human, serum, 4383 h
[5] = human; remark: listed apart in the source
[6] = human; remark: listed apart in the source
[7] = human; remark: listed apart in the source
[8] = human; remark: listed apart in the source
[9] = human, serum; remark: listed apart in the source
[10] = Times to onset, minimal and maximal, observed in the indexed observations. [column 'DELAI' in source]; conditions: human
[11] = Highest frequency of moderate liver toxicity observed during clinical trials, expressed as a percentage. [column '% BIOL' in source]; conditions: human
[12] = human; remark: listed apart in the source
[13] = human; remark: listed apart in the source
[14] = human; remark: listed apart in the source
[15] = human; remark: listed apart in the source
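For Hepatotoxicity (association with vascular disease) in this document: count of indexed literature references reporting vascular liver injury in humans, e.g. peliosis hepatitis, hepatic veno-occlusive disease or Budd-Chiari syndrome.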
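For Hepatotoxicity (benign tumour) in this document: value is a count of indexed literature references citing a benign tumour confirmed by histopathology.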
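For Hepatotoxicity (choleostasis) in this document: human cholestatic liver injury, shown by histopathology or by peak ALT or AST elevation over alkaline phosphatase ratio below 2, value counts indexed literature reports.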
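For Hepatotoxicity (chronic liver disease) in this document: chronic liver injury confirmed by histopathology or persistently raised serum aminotransferase activity beyond 6 months, value given as the count of indexed literature references.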
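For Hepatotoxicity (cirrhosis) in this document: value is a count of indexed literature references reporting cirrhosis confirmed by histopathology.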
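For Hepatotoxicity (cytolytic) in this document: human cytolytic liver injury, shown by histopathology or by a ratio above 5 of peak ALT or AST elevation to alkaline phosphatase elevation, value counts indexed references.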
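For Hepatotoxicity (granulomatous hepatitis) in this document: value is a count of indexed literature references reporting granulomatous liver disease confirmed by histopathology.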
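For Hepatotoxicity (malignant tumour) in this document: malignant tumour confirmed by histopathology, value gives the count of indexed literature references reporting it.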
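For Hepatotoxicity (severe hepatitis) in this document: human clinical data: severe hepatitis, meaning potentially life-threatening liver failure or clinically observed cases, the value counts how many indexed literature references report it.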
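For Hepatotoxicity (steatosis) in this document: steatosis confirmed by histopathology, value is the count of indexed references.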

## Nc1ccc(C(=O)[O-])cc1.[K+] [AMINOBENZOATE POTASSIUM]
[1]
  Hepatotoxicity (cytolytic): 1
[2]
  Hepatotoxicity (acute): 0%
[3]
  Hepatotoxicity (moderate): 1
[4]
  Hepatotoxicity (chronic liver disease): 0
[5]
  Hepatotoxicity (granulomatous hepatitis): 0
[6]
  Hepatotoxicity (benign tumour): 0
[7]
  Hepatotoxicity (choleostasis): 0
[8]
  Hepatotoxicity (severe hepatitis): 0
[9]
  Hepatotoxicity (acute): 1
[10]
  Hepatotoxicity (time to onset): 2 months
[11]
  Hepatotoxicity (moderate): 38%
[12]
  Hepatotoxicity (malignant tumour): 0
[13]
  Hepatotoxicity (cirrhosis): 0
[14]
  Hepatotoxicity (steatosis): 0
[15]
  Hepatotoxicity (association with vascular disease): 0

## c1cnc(N2CCN(Cc3ccc4c(c3)OCO4)CC2)nc1 [PIRIBEDIL]
[1]
  Hepatotoxicity (cytolytic): 0
[2]
  Hepatotoxicity (acute): 0%
[3]
  Hepatotoxicity (moderate): 2
[4]
  Hepatotoxicity (chronic liver disease): 0
[5]
  Hepatotoxicity (granulomatous hepatitis): 0
[6]
  Hepatotoxicity (benign tumour): 0
[7]
  Hepatotoxicity (choleostasis): 0
[8]
  Hepatotoxicity (severe hepatitis): 0
[9]
  Hepatotoxicity (acute): 0
[10]
  Hepatotoxicity (time to onset): 12 days - 2.5 months
[11]
  Hepatotoxicity (moderate): 10%
[12]
  Hepatotoxicity (malignant tumour): 0
[13]
  Hepatotoxicity (cirrhosis): 0
[14]
  Hepatotoxicity (steatosis): 0
[15]
  Hepatotoxicity (association with vascular disease): 0

## Cc1ccc(C(=O)c2ccc(CC(=O)O)n2C)cc1 [TOLMETIN]
[1]
  Hepatotoxicity (cytolytic): 0
[2]; Liver
  Hepatotoxicity (acute): 0%
[3]
  Hepatotoxicity (moderate): 3
[4]
  Hepatotoxicity (chronic liver disease): 0
[5]
  Hepatotoxicity (granulomatous hepatitis): 0
[6]
  Hepatotoxicity (benign tumour): 0
[7]
  Hepatotoxicity (choleostasis): 1
[8]; Liver
  Hepatotoxicity (severe hepatitis): 0
[9]
  Hepatotoxicity (acute): 1
[10]
  Hepatotoxicity (time to onset): 3 weeks
[11]; Liver
  Hepatotoxicity (moderate): 14.6%
[12]
  Hepatotoxicity (malignant tumour): 0
[13]
  Hepatotoxicity (cirrhosis): 0
[14]
  Hepatotoxicity (steatosis): 0
[15]
  Hepatotoxicity (association with vascular disease): 0

## CC(C)=CCC1C(=O)N(c2ccccc2)N(c2ccccc2)C1=O [FEPRAZONE]
[1]
  Hepatotoxicity (cytolytic): 2
[2]
  Hepatotoxicity (acute): 0%
[3]
  Hepatotoxicity (moderate): 1
[4]
  Hepatotoxicity (chronic liver disease): 0
[5]
  Hepatotoxicity (granulomatous hepatitis): 1
[6]
  Hepatotoxicity (benign tumour): 0
[7]
  Hepatotoxicity (choleostasis): 2
[8]
  Hepatotoxicity (severe hepatitis): 0
[9]
  Hepatotoxicity (acute): 2
[10]
  Hepatotoxicity (time to onset): 2 weeks - 1 month
[11]
  Hepatotoxicity (moderate): 0%
[12]
  Hepatotoxicity (malignant tumour): 0
[13]
  Hepatotoxicity (cirrhosis): 0
[14]
  Hepatotoxicity (steatosis): 0
[15]
  Hepatotoxicity (association with vascular disease): 0

## COc1cc2nc(N3CCN(C(=O)C4CCCO4)CC3)nc(N)c2cc1OC (stereo not given) [TERAZOSIN]
[1]
  Hepatotoxicity (cytolytic): 0
[2]
  Hepatotoxicity (acute): 0%
[3]
  Hepatotoxicity (moderate): 1
[4]
  Hepatotoxicity (chronic liver disease): 0
[5]
  Hepatotoxicity (granulomatous hepatitis): 0
[6]
  Hepatotoxicity (benign tumour): 0
[7]
  Hepatotoxicity (choleostasis): 0
[8]
  Hepatotoxicity (severe hepatitis): 0
[9]
  Hepatotoxicity (acute): 1
[10]
  Hepatotoxicity (time to onset): 4 months
[11]
  Hepatotoxicity (moderate): 1.9%
[12]
  Hepatotoxicity (malignant tumour): 0
[13]
  Hepatotoxicity (cirrhosis): 0
[14]
  Hepatotoxicity (steatosis): 0
[15]
  Hepatotoxicity (association with vascular disease): 0

## CO[C@@H]1[C@@H](O[C@@H]2O[C@H](C)[C@@H](O[C@H]3C[C@@](C)(O)[C@@H](OC(=O)CC(C)C)[C@H](C)O3)[C@H](N(C)C)[C@H]2O)[C@@H](CC=O)C[C@@H](C)[C@@H](O)/C=C/C=C/C[C@@H](C)OC(=O)C[C@H]1OC(C)=O [JOSAMYCIN]
[1]
  Hepatotoxicity (cytolytic): 6
[2]
  Hepatotoxicity (acute): 0%
[3]
  Hepatotoxicity (moderate): 5
[4]
  Hepatotoxicity (chronic liver disease): 0
[5]
  Hepatotoxicity (granulomatous hepatitis): 0
[6]
  Hepatotoxicity (benign tumour): 0
[7]
  Hepatotoxicity (choleostasis): 5
[8]
  Hepatotoxicity (severe hepatitis): 0
[9]
  Hepatotoxicity (acute): 9
[10]
  Hepatotoxicity (time to onset): 5 days - 2 weeks
[11]
  Hepatotoxicity (moderate): 20%
[12]
  Hepatotoxicity (malignant tumour): 0
[13]
  Hepatotoxicity (cirrhosis): 0
[14]
  Hepatotoxicity (steatosis): 0
[15]
  Hepatotoxicity (association with vascular disease): 0

## CCN(CC)CCOC(=O)[C@@H](Cc1cccc2ccccc12)C[C@@H]1CCCO1 [NAFTIDROFURYL]
[1]
  Hepatotoxicity (cytolytic): 2
[2]
  Hepatotoxicity (acute): 0%
[3]
  Hepatotoxicity (moderate): 0
[4]
  Hepatotoxicity (chronic liver disease): 0
[5]
  Hepatotoxicity (granulomatous hepatitis): 1
[6]
  Hepatotoxicity (benign tumour): 0
[7]
  Hepatotoxicity (choleostasis): 2
[8]
  Hepatotoxicity (severe hepatitis): 0
[9]
  Hepatotoxicity (acute): 3
[10]
  Hepatotoxicity (time to onset): 7 weeks - 4.3 months
[11]
  Hepatotoxicity (moderate): 0%
[12]
  Hepatotoxicity (malignant tumour): 0
[13]
  Hepatotoxicity (cirrhosis): 0
[14]
  Hepatotoxicity (steatosis): 0
[15]
  Hepatotoxicity (association with vascular disease): 0

## CNCCON=c1c2ccccc2ccc2ccccc12 [DEMEXIPTILINE]
[1]
  Hepatotoxicity (cytolytic): 1
[2]
  Hepatotoxicity (acute): 0%
[3]
  Hepatotoxicity (moderate): 0
[4]
  Hepatotoxicity (chronic liver disease): 0
[5]
  Hepatotoxicity (granulomatous hepatitis): 0
[6]
  Hepatotoxicity (benign tumour): 0
[7]
  Hepatotoxicity (choleostasis): 1
[8]
  Hepatotoxicity (severe hepatitis): 0
[9]
  Hepatotoxicity (acute): 1
[10]
  Hepatotoxicity (time to onset): 6 weeks
[11]
  Hepatotoxicity (moderate): 0%
[12]
  Hepatotoxicity (malignant tumour): 0
[13]
  Hepatotoxicity (cirrhosis): 0
[14]
  Hepatotoxicity (steatosis): 0
[15]
  Hepatotoxicity (association with vascular disease): 0

Source: ChEMBL document CHEMBL3137667, “[Drug-induced liver injury; fourteenth updated edition of the bibliographic database of liver injuries and related drugs]” (Gastroenterol Clin Biol, 2004)
